According to ChEMBL document CHEMBL6109084 (Eur J Med Chem, 2025):

Experiments:
[1] = molecular target: Coagulation factor XI (Homo sapiens, UniProt P03951); assay: Inhibition of human FXIa using p-Glu-Pro-Arg-pNA.HCl as substrate incubated for 30 mins followed by substrate addition and measured after 60 mins by microplate reader analysis
[2] = tested on: Plasma; assay: Anticoagulant activity in citrated human plasma assessed as prolongation of activated partial thromboplastin time at 1 uM incubated for 3 mins by aPTT reagent based automated coagulometric analysis relative to control; type: functional; conditions: 0.05 h

Sequence of Coagulation factor XI (P03951 19-387 limits assumed): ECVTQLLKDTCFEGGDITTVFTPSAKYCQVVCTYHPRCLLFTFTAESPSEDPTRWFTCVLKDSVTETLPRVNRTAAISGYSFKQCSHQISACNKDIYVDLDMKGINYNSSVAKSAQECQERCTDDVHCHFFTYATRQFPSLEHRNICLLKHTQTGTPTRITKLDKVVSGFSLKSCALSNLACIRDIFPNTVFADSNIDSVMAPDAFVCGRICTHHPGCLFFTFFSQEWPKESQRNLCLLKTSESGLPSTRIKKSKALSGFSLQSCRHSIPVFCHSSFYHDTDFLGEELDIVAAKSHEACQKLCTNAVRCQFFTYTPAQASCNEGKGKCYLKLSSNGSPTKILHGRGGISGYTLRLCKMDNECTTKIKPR
Sequence of Coagulation factor XI (P03951 388-625 limits assumed): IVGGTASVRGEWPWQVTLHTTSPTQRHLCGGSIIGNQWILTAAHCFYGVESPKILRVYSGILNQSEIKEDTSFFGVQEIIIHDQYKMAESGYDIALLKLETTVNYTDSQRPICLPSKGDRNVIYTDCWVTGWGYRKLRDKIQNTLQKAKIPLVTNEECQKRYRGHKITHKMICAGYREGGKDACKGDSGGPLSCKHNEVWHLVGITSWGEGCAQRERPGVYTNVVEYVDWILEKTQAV

IC50 [1] [nM]	SMILES	Activity [2] [%]
1.7	COc1cn(Cc2cccc(-c3ccc(O)cc3)c2)c(=O)cc1-c1cc(Cl)ccc1-n1cnnn1	26.6
6.7	CC[C@H](c1cc(-c2ccc(N)nc2F)ccn1)n1cc(OC)c(-c2cc(Cl)ccc2-n2cnnn2)cc1=O	56.3
> 500	COc1cn(Cc2cccc(-c3ccc(N)nc3)c2)c(=O)cc1-c1cc(Cl)ccc1OC(F)F	–
95.3	COc1cn(Cc2cc(-c3cnc(N)nc3)ccn2)c(=O)cc1-c1cc(Cl)ccc1-n1cnnn1	–
1.4	COc1cn(C(C)c2ccc(F)c(-c3ccc(N)nc3)c2)c(=O)cc1-c1cc(Cl)ccc1-n1cnnn1 (configuration not stated)	14.8
0.35	COc1cn(Cc2cccc(-c3ccc(N)nc3)c2)c(=O)cc1-c1cc(Cl)ccc1-n1cnnn1	143.3
1.7	COc1ccc(Cn2cc(OC)c(-c3cc(Cl)ccc3-n3cnnn3)cc2=O)cc1-c1ccc(N)nc1	50.4
39	COc1cn(Cc2ccc3ccccc3c2)c(=O)cc1-c1cc(Cl)ccc1-n1cnnn1	–
1.6	CCC(c1cccc(-c2ccc(N)nc2)c1)n1cc(OC)c(-c2cc(Cl)ccc2-n2cc(Cl)nn2)cc1=O (configuration not stated)	55.6
0.39	COc1cn(Cc2cccc(-c3ccc(N)nc3F)c2)c(=O)cc1-c1cc(Cl)ccc1-n1cnnn1	103.4
4	COc1cn(Cc2cccc(-c3ccc4[nH]ncc4c3)c2)c(=O)cc1-c1cc(Cl)ccc1-n1cnnn1	38.7
0.39	CCC(c1cc(-c2ccc(N)nc2F)ccn1)n1cc(OC)c(-c2cc(Cl)ccc2-n2cnnn2)cc1=O (racemic)	97.2
1.9	COc1cn(Cc2ccc(F)c(-c3ccc(NC(C)=O)cc3)c2)c(=O)cc1-c1cc(Cl)ccc1-n1cnnn1	86.8
5.2	CNC(=O)c1ccc(-c2cc(Cn3cc(OC)c(-c4cc(Cl)ccc4-n4cnnn4)cc3=O)ccc2F)cc1	49.9
2.2	COc1cn(Cc2cccc(-c3ccc(N)nc3)c2)c(=O)cc1-c1cc(Cl)ccc1-n1cc(Cl)nn1	82.8
0.54	COc1cn(C(C)c2cccc(-c3ccc(N)nc3)c2)c(=O)cc1-c1cc(Cl)ccc1-n1cnnn1 (configuration not stated)	74.3
0.69	COc1cn(Cc2ccc(F)c(-c3ccc(N)nc3)c2)c(=O)cc1-c1cc(Cl)ccc1-n1cnnn1	128.5
> 1000	COc1cn(Cc2cccc(-c3ccc(N)nc3)c2)c(=O)cc1-c1cc(Cl)ccc1C(F)F	–
0.33	COc1cn(Cc2ccnc(-c3ccc(N)nc3)c2)c(=O)cc1-c1cc(Cl)ccc1-n1cnnn1	112.5
1.4	COc1cn(Cc2ccc(F)c(-c3ccc(O)cc3)c2)c(=O)cc1-c1cc(Cl)ccc1-n1cnnn1	63.2
6.4	COc1cn(Cc2cccc(-c3ccc(NC(C)=O)cc3)c2)c(=O)cc1-c1cc(Cl)ccc1-n1cnnn1	50.8
> 1000	COc1cn(Cc2cccc(-c3ccncc3)c2)c(=O)cc1-c1cc(Cl)ccc1C(F)F	–
> 500	COc1cn(Cc2cccc(-c3ccc(N(C)C)cc3)c2)c(=O)cc1-c1cc(Cl)ccc1-n1cnnn1	–
> 500	COc1cn(Cc2cccc(-c3ccncc3)c2)c(=O)cc1-c1cc(Cl)ccc1OC(F)F	–
15.1	COc1cn(Cc2cccc(-c3ccc(F)cc3F)c2)c(=O)cc1-c1cc(Cl)ccc1-n1cnnn1	–
10.1	COc1cn(Cc2cccc(-c3ccc(F)cc3)c2)c(=O)cc1-c1cc(Cl)ccc1-n1cnnn1	–
1100	COc1c[nH]c(=O)cc1-c1cc(Cl)ccc1-n1cnnn1	–
203	COc1cn(Cc2ccc(-c3ccc(O)cc3)cc2)c(=O)cc1-c1cc(Cl)ccc1-n1cnnn1	–
11.5	COc1cn(Cc2cccc(-c3cnc(N)nc3)c2)c(=O)cc1-c1cc(Cl)ccc1-n1cnnn1	–
129	COc1ccc(-c2cccc(Cn3cc(OC)c(-c4cc(Cl)ccc4-n4cnnn4)cc3=O)c2)cc1	–
